Experimental data: patent publication US12678433B2, “Compounds for treatment of hemolysis-and inflammasome-associated diseases” (New York Blood Center, Inc., priority 2020, dated 2026)

What was measured:
[1] = system: purified naïve B cells from healthy donors; conditions: for inhibition of B cell proliferation / inhibition of plasma cell differentiation: at the highest concentrations; for effect on plasma cell differentiation without or with heme: 2.5 μM compound, without or with 5 μM heme
Experimental: Hemin and RBC lysate preparation. Hemin, dissolved in dimethyl sulfoxide (DMSO), stock concentration 10 mM, was diluted to 100 μM with serum-free RPMI 1640 culture medium just prior to addition to B cell cultures. For short-term experiments lasting less than 24 hr, a final concentration of 10 μM hemin was used whereas for longer-term culture up to 7 days, 2.5-5 μM final heme concentration was used. RBC lysates were freshly prepared (containing ~80 g/L hemoglobin) for same day use. Briefly, 4 ml whole blood from healthy donors was passed through Acrodisc WBC syringe filter (Pall Corporation) to remove white blood cells followed by two washes with Dulbecco's Phosphate Buffered Saline (D-PBS) (200×g, 10 min at room temperature with no brake) for removal of platelets. The RBC pellet was lysed with 3 times volume of distilled water for 10 min at 37° C. Cellular debris was pelleted by centrifugation at 4000×g for 10 min at 4° C. The RBC lysate was transferred to a new tube and 1/9 volume of 10×D-PBS added.
Cell isolation and culture. Peripheral blood mononuclear cells (PBMCs) were prepared by Ficoll (GE Healthcare) density gradient centrifugation from healthy donor leukopak products as well as from sickle peripheral blood apheresis waste bags. Human naïve and memory B cells were isolated from PBMCs using a human memory B Cell Isolation Kit (Miltenyi Biotec) by collecting CD27− B cells (naïve B cells) and CD27+ B cell (memory B cells) separately. […] RPMI 1640 culture medium was used for all cell culture experiments (supplemented with 10% FBS, 100-unit penicillin-streptomycin, […], 1 mM sodium pyruvate, all from Thermo Fisher Scientific). Purified B cells were stained with CFSE (Cat #: C34554, Thermo Fisher Scientific) and cultured in U-bottom 96 well plates (2.5×10^5/well/200 μl culture medium) in the presence of goat anti-human IgA+IgG+IgM (H+L) F(ab′)2 fragment (2.5 μg/ml, Jackson ImmunoResearch), CD154 (10 ng/ml, R&D Systems) and CpG (ODN 7909, 1 nM, Cat #: tlrl-2006-1) without IL-2 for analysis of only CD38+ plasmablast differentiation or with IL-2 (5 ng/ml, Cat #:1081-IL-020, R&D Systems) in experiments to detect CD27^hiBlimp-1+ plasma cells. In addition, heme and various inhibitors were added to the cultures at the start point and incubated for 7 days.
(§1) Cultured cells: stimulated B cells were transferred into U bottom 96 well plate and washed with 200 μl MACS buffer (D-PBS containing 0.5% BSA and 2 mM EDTA) at 300×g for 5 min at 4° C. After one wash, cells were stained for surface expression of CD19, CD38, CD27 using 25 μl staining buffer (anti-CD19, CD38, CD27 antibodies, diluted 200 fold with MACS buffer) for 30 min at 4° C. After one wash with 200 μl MACS buffer, cells were resuspended in 100 μl D-PBS and 50 μl Fixable Viability Dye eFluor™ 780 (1000 fold diluted with D-PBS, Thermo Fisher Scientific) was added for dead cell detection for 5 min at room temperature. Cells were washed one time with MACS buffer and 100 μl D-DPS was added just before flow cytometric analysis (LSRFortessa flow cytometer, BD Bioscience). For intracellular staining of IgG, Blimp-1 and HO-1, samples were first washed with 200 μl MACS buffer before addition of 150 μl Fixation/Permeabilization buffer (Thermo Fisher Scientific) for 45 min at 4° C. After fixation, samples were washed twice with 1× Permeabilization buffer (Thermo Fisher Scientific) and stained with 25 μl intracellular staining buffer (anti-human IgG, DOCK8, Blimp-1, HO-1 antibodies, diluted 200 fold with 1× Permeabilization buffer) for 45 min at 4° C., after which the cells were washed twice with Permeabilization buffer and 100p D-DPS was added prior to flow cytometric analysis.

[2] = system: naïve B cells from Allo(−) and Allo(+) SCD patients; assay: 7-day stimulated naïve B cell culture from SCD patients; assay type: cell-based, human; conditions: for effect on heme-mediated inhibition of plasmablast differentiation: SnPPIX 2.5 μM, heme 2.5 μM
Experimental: Human samples. All studies were approved by the institutional Review Boards of the New York Blood Center (NYBC) and Montefiore Health Center. […] The blood samples from SCD patients were processed within 18 hours after collection. For circulating DOCK8 expression studies in healthy controls, peripheral blood samples from de-identified, race-matched healthy donors were used. Leukocyte enriched products from de-identified healthy donors were used for purification of B cells for in vitro culture studies.
Cell isolation and culture. Peripheral blood mononuclear cells (PBMCs) were prepared by Ficoll (GE Healthcare) density gradient centrifugation from healthy donor leukopak products as well as from sickle peripheral blood apheresis waste bags. Human naïve and memory B cells were isolated from PBMCs using a human memory B Cell Isolation Kit (Miltenyi Biotec) by collecting CD27− B cells (naïve B cells) and CD27+ B cell (memory B cells) separately. […] In addition, heme and various inhibitors were added to the cultures at the start point and incubated for 7 days.
as §1

[3] = system: HO-1; assay: HO-1 expression in stimulated B cells; assay type: cell-based, human; conditions: for HO-1 upregulation: 2.5 μM compound with 5 μM heme
From the text: HO-1 is a key enzyme for heme degradation with multiple biologic activities attributed to its enzymatic byproducts. We analyzed HO-1 expression levels in human B cells before and after stimulation with our polyclonal B cell activation cocktail. […] We also found higher HO-1 levels in DOCK8^hi plasma cells (FIG. 8B).

[4] = system: NLRP3 inflammasome pathway; assay: NLRP3 inflammasome activation, IL-1β secretion by LPS-primed monocytes; assay type: cell-based, human; conditions: in the presence/absence of hemin
Experimental: FIG. 13A-D depicts human monocytes isolated from peripheral blood were cultured with LPS for 3 hours to prime pro-IL-1β production followed by addition of various NLRP3 pathway agonists to trigger IL-1β secretion without or with therapeutic reagents including hemin, quinine or hemin plus quinine (all at 2.5 μM concentration for all experiments except the dose response studies in FIGS. 13B and C). Levels of IL-1β, IL-6 and TNF-α in the culture supernatants was analyzed 30 min (for ATP treatment) or 2 hours (for nigericin and imiquimod) after addition of NLRP3 agonists. FIG. 13A: The effect of hemin, quinine and hemin plus quinine on IL-1β secretion triggered by various NLRP3 agonists. FIG. 13B: The dose dependent effect of hemin, quinine and hemin plus quinine. FIG. 13C: The effect of QA, CQ, AQ, and DHA in the presence/absence of hemin. FIG. 13D: The effect of hemin, quinine, or hemin plus quinine on IL-6 and TNF-α.

[5] = system: SCD mice; assay: RBC alloimmunization in SCD mice after huGPA RBC transfusion (anti-GPA antibody in plasma); assay type: in vivo, mouse; conditions: QA 12 mg/kg intraperitoneally twice per day
Experimental: FIG. 10A-C. Effects of heme and quinine on mouse B cell differentiation in vitro: Splenic B cells were purified from C57BL/6J mice (n=3), stained with CFSE and cultured (5×10^4/well) for 7 days in the presence of anti-mouse IgM, IgG F(ab)′2 (10 μg/ml), anti-mouse CD40 antibody (1 μg/ml) and CpG (ODN1826) (1 μg/ml) without or with different doses of quinine and in the absence or presence of 2.5 μM or 5 μM concentration of hemin. Fold difference in proliferated B cells (FIG. 10A) and CD138+ plasma B cells (FIG. 10B) are shown. FIG. 10C: Representative experiment in SCD mice following transfusion of RBCs expressing human GPA (huGPA RBCs) collected from mice transgenic for human GPA in the absence or presence of quinine (QA). Briefly, mice were transfused twice with […] of huGPA RBCs, each transfusion given one week apart. Mice were treated intraperitoneally twice per day with QA (12 mg/kg, reported to maintain serum quinine levels at 0.5~1 μM) or the same volume PBS. Levels of anti-GPA antibody in plasma were measured 7 days after the last transfusion by flow cytometry.

[6] = QA 12 mg/kg intraperitoneally twice per day; cited from earlier work
[7] = system: DOCK8; assay: DOCK8 expression and DOCK8hi/DOCK8lo subsets in stimulated B cells; assay type: cell-based, human; conditions: quinine in the presence of heme
From the text: We next tested the effect of cell-free heme on DOCK8 signaling during B cell differentiation. […] Heme treatment led to inhibition of CD27^hiBlimp-1^+ plasma cell differentiation (FIG. 2D, p=0.0195).

C=Cc1c2[n-]c(c1C)/C=c1\[n-]/c(c(C)c1C=C)=C\c1[n-]c(c(CCC(=O)O)c1C)C=c1[n-]/c(c(C)c1CCC(=O)O)=C\2.[Sn+4] [SnPPIX, tin protoporphyrin IX]
effect on heme-mediated inhibition of plasmablast cell differentiation ([1]; SnPPIX 2.5 μM with heme 2.5 μM): reversed | effect on differentiation ([1]; SnPPIX alone 2.5 μM): no effect | frequency of CD38+ plasmablasts ([1]; SnPPIX alone 2.5 μM, vs 6.3%±2.7%): 8.1%±3.5% | effect on B cell proliferation ([1]; heme 2.5 μM, SnPPIX 2.5 μM, alone or together): little to no effect | effect on heme-mediated inhibition of plasmablast differentiation ([2]; Allo(+) SCD patients): less effect | effect on heme-mediated inhibition of plasmablast differentiation ([2]; Allo(−) SCD patients): reversed heme-mediated inhibition | B cell proliferative responses, Allo(+) versus Allo(−) ([2]; in the presence of SnPPIX 2.5 μM): comparable

C=CC1=C(C)/C(=C/C2=NC(=C\c3[nH]c(/C=C4\NC(=O)C(C)=C4C=C)c(C)c3CCC(=O)O)/C(CCC(=O)O)=C2C)NC1=O [biliverdin]
inhibition of B cell proliferation [1]: 13.3%±3.5% | inhibition of plasma cell differentiation [1]: 68.4%±18.6%

Cl.Cl.NCCNc1ncc(C(N)=O)c(Nc2cccc(C(F)(F)F)c2)n1 [Syk Inhibitor II]
HO-1 in stimulated B cells ([3]; SYK inhibitor relative to no SYK inhibitor): induction of HO-1

C[C@H]1[C@@H](O)O[C@@H]2O[C@@]3(C)CC[C@H]4[C@H](C)CC[C@@H]1[C@@]24OO3 [DHA, dihydroartemisinin]
effect of other hemin binding small molecules on the inflammasome activation pathway [4]: no inhibitory effect

NCC(=O)O.[C-]#[O+].[C-]#[O+].[C-]#[O+].[Cl][Ru] [CORM-3, carbon monoxide releasing molecule-3]
inhibition of B cell proliferation [1]: 38.7%±5.0% | inhibition of plasma cell differentiation [1]: 91.2%±2.9%

CCN(CC)Cc1cc(Nc2ccnc3cc(Cl)ccc23)ccc1O [AQ, amodiaquine]
HO-1 upregulation [3]: not | effect of other hemin binding small molecules on the inflammasome activation pathway [4]: no inhibitory effect | effect on plasma cell differentiation without or with heme [1]: inhibited plasma cell differentiation in the absence or presence of heme

C=C[C@H]1C[N@@]2CC[C@H]1C[C@H]2[C@H](O)c1ccnc2ccc(OC)cc12 [quinine, (R)-(6-Methoxyquinolin-4-yl)[(1S,2S,4S,5R)-5-vinylquinuclidin-2-yl]methanol]
effect on plasma cell differentiation without or with heme [1]: required the presence of heme | cytotoxic effects (viability studies) ([1]; except at the highest doses of heme plus quinine): minimal cytotoxic effects | RBC alloimmunization levels in vivo [5]: did not lower | effect on resistance to heme suppression ([2]; Allo(+) patients, quinine plus heme): reversed resistance to heme suppression | effect on heme-mediated suppression of plasma cells ([2]; Allo(−) SCD patients, quinine plus heme): further increased heme-mediated suppression | effect on plasma cell differentiation in the absence of heme ([2]; both groups of SCD patients): weak but significant inhibitory effect | serum quinine levels [6]: 0.5~1 μM | effect on DOCK8 expression [7]: no significant effect

CCN(CC)CCCC(C)Nc1ccnc2cc(Cl)ccc12 (stereo not shown) [CQ, chloroquine]
HO-1 upregulation [3]: not | effect of other hemin binding small molecules on the inflammasome activation pathway [4]: no inhibitory effect | effect on plasma cell differentiation without or with heme [1]: inhibited plasma cell differentiation in the absence or presence of heme

B1: hemopexin: a heme scavenging protein (protein, UniProt P02790 24-462, looked up)
Hemopexin: TPLPPTSAHGNVAEGETKPDPDVTERCSDGWSFDATTLDDNGTMLFFKGEFVWKSHKWDRELISERWKNFPSPVDAAFRQGHNSVFLIKGDKVWVYPPEKKEKGYPKLLQDEFPGIPSPLDAAVECHRGECQAEGVLFFQGDREWFWDLATGTMKERSWPAVGNCSSALRWLGRYYCFQGNQFLRFDPVRGEVPPRYPRDVRDYFMPCPGRGHGHRNGTGHGNSTHHGPEYMRCSPHLVLSALTSDNHGATYAFSGTHYWRLDTSRDGWHSWPIAHQWPQGPSAVDAAFSWEEKLYLVQGTQVYVFLTKGGYTLVSGYPKRLEKEVGTPHGIILDSVDAAFICPGSSRLHIMAGRRLWWLDLKSGAQATWTELPWPHEKVDGALCMEKSLGPNSCSANGPGLYLIHGPNLYCYSDVEKLNAAKALPQPQNVTSLLGCTH
effect of pre-incubation with hemopexin on inhibition by RBC lysate or free heme ([1]; hemopexin 2.5 μM, RBC lysate 1 g/L hemoglobin or heme 2.5 μM): reversed the inhibitory effect
